Patent publication US20100129831A1, “METHODS FOR DIAGNOSING HYPERSENSITIVITY REACTIONS” (priority 2007, published 2010)

Test system: acute interstitial nephritis
Assay: oral glucocorticoid treatment of acute interstitial nephritis (case report)
Assay type: in vivo, human
Settings: 1 mg/kg, creatinine gradually declined
Procedure: Severe acute interstitial nephritis (AIN) was diagnosed based on needle biopsy. Oral glucocorticoid treatment (prednisone 1 mg/kg) was begun and was effective. Creatinine gradually declined over the next 8 weeks (Cr-3.5 mg/dL); glucose levels also declined. Another course of steroids was initiated, after which the creatinine level further declined, stabilizing around a level of 1.8 mg/dL, close to the previous value of 1.4 mg/dL. While investigated as to the etiology of their newly diagnosed AIN, the patient described the use of an alternative medicine hypnotic or sedative OTC, “Region-Laila.” Region's leaflet lists 4 active ingredients: Passiflora incarnata 250 mg, Scutellaria laterifolia 50 mg, Humulus Lupullus 50 mg and Melissa officinalis 25 mg.

## C[C@]12C=CC(=O)C=C1CC[C@@H]1[C@@H]2C(=O)C[C@@]2(C)[C@H]1CC[C@]2(O)C(=O)CO [prednisone]
  treatment outcome in acute interstitial nephritis: effective
